Where two headings read alike, the source gives them in different places.
Key:
NK1 receptor = biological target: T1, NK1 receptor (Cavia porcellus, UniProt P30547); assay: Antagonism of iodinated tachykinin binding to NK1 receptor (125I-Bolton Hunter Lys-3 labeled substance P, guinea pig lung membranes)
T1 construct: Tissues or cells were homogenized with a Polytron in 15 volumes of 50 mM Tris-HCl buffer; tissue Keystone Biologicals, Cleveland, OH; host or cells: guinea pig lung membranes
Method: (§1) The NK1 receptor affinity of proposed tachykinin antagonists was devaluated in guinea pig lungs (Keystone Biologicals, Cleveland, OH), affinity for the NK2 receptor evaluated in HSKR-1 cells (which are mouse 3T3 fibroblasts expressing the human jejunal NK2 receptor) and NK-3 receptor affinity was evaluated in freshly collected guinea pig cerebral cortex. Tissues or cells were homogenized with a Polytron in 15 volumes of 50 mM Tris-HCl buffer (pH 7.4, 4°C) and centrifuged. The pellet was resuspended in Tris-HCl buffer and was centrifuged; the pellet was washed twice by resuspension. The final pellet was resuspended at a concentration of 40 mg/ml for tissues (guinea pig lung and cerebral cortex) and 20 mg/ml for cells in incubation buffer and remained at room temperature for at least 15 min prior to use. Receptor binding was initiated by addition of 250 µl membrane preparation in duplicate to 0.1 nM of the following radioligands: ^125I-Bolton Hunter Lys-3 labeled substance P; ^125iodohistidyl-1-neurokinin A; and ^125I-Bolton Hunter labeled Lys-4 eledoisin in a final volume of 500 µl of buffer containing 50 mM Tris-HCl (pH 7.4 at room temperature), 0.1% bovine serum albumin, 2 mM MnCl2, 40 µg/ml bacitracin, 4 µg/ml leupeptin and chymostatin, 1 µM thiorphan and various doses of the putative tachykinin antagonists. Incubations were performed at room temperature for 90 min (NK1 receptor assays) or 2 hr (NK2 and NK3 receptor assays); binding was terminated by addition of 50 mM Tris-HCl buffer (pH 7.4, 4°C) and filtration under vacuum through GF/B filters presoaked with 0.1% polyethyleneimine (NK1 receptor assays) or 0.5% bovine serum albumin (NK2 and NK3 receptor assays). Filter bound radioactivity was quantitated in a gamma counter. Nonspecific binding was defined as binding in the presence of 1 µM substance P, neurokinin A, or eledoisin. Specific binding was calculated by subtracting nonspecific binding from total binding. Competition of iodinated SP, NKA, or eledoisin binding by test compounds or standards was expressed as a percentage of this maximum competition. IC50 values (concentration required to inhibit 50% of receptor binding) were generated for each of the test compounds by nonlinear regression using an iterative curve fitting program (GraphPAD Inplot, San Diego, CA).

NK-3 receptor = biological target: T2, NK-3 receptor (Cavia porcellus, UniProt P30098); assay: Antagonism of iodinated tachykinin binding to NK-3 receptor (125I-Bolton Hunter labeled Lys-4 eledoisin, guinea pig cerebral cortex membranes)
T2 construct: freshly collected guinea pig cerebral cortex; from tissue; host or cells: guinea pig cerebral cortex membranes
T2 sequence (P30098 1-440): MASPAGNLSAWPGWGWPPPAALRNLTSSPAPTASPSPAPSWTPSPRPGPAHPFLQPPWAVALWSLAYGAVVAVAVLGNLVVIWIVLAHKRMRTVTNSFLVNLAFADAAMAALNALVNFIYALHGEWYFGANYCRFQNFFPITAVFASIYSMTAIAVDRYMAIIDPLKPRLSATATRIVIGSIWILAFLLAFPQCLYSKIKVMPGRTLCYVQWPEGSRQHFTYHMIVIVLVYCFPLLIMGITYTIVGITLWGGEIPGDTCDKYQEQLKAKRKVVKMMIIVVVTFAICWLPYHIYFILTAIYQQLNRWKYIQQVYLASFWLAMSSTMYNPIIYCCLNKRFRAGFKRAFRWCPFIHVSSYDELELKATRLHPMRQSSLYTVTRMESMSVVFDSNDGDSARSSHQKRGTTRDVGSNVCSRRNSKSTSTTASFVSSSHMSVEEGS
Method: as §1

[1] = biological target: T3, human jejunal NK2 receptor (Homo sapiens, UniProt P21452); assay: Antagonism of iodinated tachykinin binding to NK2 receptor (125iodohistidyl-1-neurokinin A, HSKR-1 cell membranes); conditions: HSKR-1 cells (mouse 3T3 fibroblasts expressing human jejunal NK2 receptor); mean of several experiments; read-out: NK-2 IC50
T3 construct: expressed in transfected cells; host or cells: HSKR-1 cells (mouse 3T3 fibroblasts)
T3 sequence (P21452 1-398): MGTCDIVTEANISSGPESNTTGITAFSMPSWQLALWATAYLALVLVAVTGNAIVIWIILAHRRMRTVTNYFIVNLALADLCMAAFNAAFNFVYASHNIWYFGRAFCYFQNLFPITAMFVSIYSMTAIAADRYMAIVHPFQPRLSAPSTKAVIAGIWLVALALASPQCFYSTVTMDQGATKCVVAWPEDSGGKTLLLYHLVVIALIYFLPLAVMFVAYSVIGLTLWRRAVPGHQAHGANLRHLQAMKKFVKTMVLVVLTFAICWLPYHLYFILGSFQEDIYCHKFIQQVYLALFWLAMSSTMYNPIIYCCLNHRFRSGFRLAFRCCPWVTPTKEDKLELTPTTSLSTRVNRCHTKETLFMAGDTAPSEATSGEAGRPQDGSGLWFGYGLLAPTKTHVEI
Method: as §1

[2] = system: capsaicin-induced respiratory effects; assay: Antagonism of capsaicin aerosol induced respiratory effects in conscious guinea pigs (whole body plethysmography); assay type: in vivo, guinea pig; conditions: for DYSPNEA ONSET / MAXIMUM PRESSURE INCREASE (mmH2O) / SRE NUMBER*: mean and SEM; for SRE NUMBER*: number of coughs/gasps during 19 min exposure
Method: In vivo experiments were performed using male Duncan Hartley guinea pigs (250-350g). Changes in conscious breathing patterns were monitored in four animals simultaneously using modified whole body plethysmography consisting of four small plexiglass boxes each connected to a reference box via Validyne DP 45-16 differential pressure transducers. The 4 boxes were equipped with an air supply line (also used for aerosol delivery) and an exhaust air line. Supply and exhaust lines were of the same length and narrow bore and arose from a common supply chamber and vented to a common exhaust chamber. This system was used to ensure that fluctuations in supply air and atmospheric pressure would remain in phase and be eliminated from the net signal by the differential pressure transducers. The analog pressure signals were digitalized via a Data Translation DT2821 A to D board. Data were collected at a rate of 100 samples/second/animal. Each cycle of pressure change was analyzed using the following parameters: rising and falling slope determined between minimum and maximum pressures, the ratio of rising over falling slope, and the magnitude of the change between initial trough pressure and peak cycle pressure. Using these values (and observing the animals) the pressure cycles were characterized into normal breaths, forced exhalations (apparent by abdominal heaving), significant respiratory events (SREs; usually coughs, less often sneezes or gasps which were characterized by transient, extremely large pressure increases which were distinguishable from noise) and movement/noise with a PCAT 286 running a System V UNIX operating system. Dyspnea was defined as a significant, sustained increase in plethysmograph pressure which was associated with an observable shift to labored breathing in the animal.
During the course of a typical experiment in which airway responsiveness to various bronchoconstricting agents was examined, aerosols were delivered for 19 min (0.33 ml/min) using a DeVilbiss Ultraneb 99 ultrasonic nebulizer and animals monitored during this time. Prior to nebulization, 1 min of resting breathing was collected to establish a baseline pressure. […] The vehicle for nebulization of all bronchoconstrictive agents was phosphate buffered saline (pH 7.4) which elicited no respiratory effects itself. Putative tachykinin antagonists were administered either (i.v.) 20 min prior to onset of aerosol exposure or orally 1 hour prior to onset (to guinea pigs after an overnight fast).
Capsaicin aerosol is known to promote release of the tachykinins SP and NKA from sensory nerves in the airways of guinea pigs which may then act upon NK1 and NK2 receptors, respectively to elicit respiratory effects. […]
(§2) Values are mean and SEM of data derived from number of animals indicated in parenthesis. Putative tachykinin antagonists were administered intravenously 20 min prior to initiation of capsaicin aerosol (0.001%). *SRE number indicates the number of coughs/gasps which occurred during the 19 min capsaicin exposure period.
as §2, with “by oral gavage 1 hr” for “intravenously 20 min”

[3] = guinea pig lungs, mean of several experiments, read-out: NK-1 IC50
[4] = guinea pig cerebral cortex, mean of several experiments, read-out: NK-3 IC50
[5] = 25 mg/kg by oral gavage 1 hr prior to capsaicin aerosol (0.001%)
[6] = 50 mg/kg by oral gavage 1 hr prior to capsaicin aerosol (0.001%)

T1 sequence (P30547 whole entry): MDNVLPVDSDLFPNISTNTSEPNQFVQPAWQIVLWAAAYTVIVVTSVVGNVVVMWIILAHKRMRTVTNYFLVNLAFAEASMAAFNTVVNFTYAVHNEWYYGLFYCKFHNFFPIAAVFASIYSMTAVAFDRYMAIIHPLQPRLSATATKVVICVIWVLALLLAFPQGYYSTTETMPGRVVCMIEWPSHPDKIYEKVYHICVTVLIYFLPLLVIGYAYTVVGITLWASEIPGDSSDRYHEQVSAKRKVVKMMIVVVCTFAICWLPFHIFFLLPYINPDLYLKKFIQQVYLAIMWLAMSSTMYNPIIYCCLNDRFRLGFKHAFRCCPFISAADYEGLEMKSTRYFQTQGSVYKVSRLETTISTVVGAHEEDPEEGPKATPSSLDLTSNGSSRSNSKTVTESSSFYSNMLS

For `COc1cccc(OC)c1C(=O)N1CCC(CCN2CCC3(CC2)C(=O)NCN3c2ccccc2)(c2ccc(Cl)c(Cl)c2)C1` (stereo not shown) [Example 9, 8-[2-[3-(3,4-dichloro-phenyl)-1-(2,6-dimethoxy-benzoyl)-pyrrolidin-3-yl]-ethyl]-1-phenyl-1,3,8-triaza-spiro[4.5]decane-4-one], which IC50 (NK1 receptor; [3]) is on record?
Its IC50 is 49 nM.

And the IC50 (NK-3 receptor; [4])?
Its IC50 is 183 nM.

And the IC50 [1]?
Its IC50 is 118 nM.

Which results are given for `COC(=O)[C@@H](NC(=O)C1(c2ccccc2)CCN(CCC2(c3ccc(Cl)c(Cl)c3)CCN(C(=O)c3ccccc3)C2)CC1)[C@@H](C)O` (stereo partly shown) [Example 7, 2-[(1-(2-[1-benzoyl-3-(3,4-dichloro-phenyl)-pyrrolidin-3-yl]-ethyl)-4-phenyl-piperidine-4-carboxyl)-amino]-3-hydroxy butyric acid methyl ester]?
IC50 (NK1 receptor; [3]): 240 nM; IC50 (NK-3 receptor; [4]): 202 nM; IC50 [1]: 10 nM

Which IC50 (NK1 receptor) does the source give for `COc1cccc(OC)c1C(=O)N1CCC(CCN2CCC(C(N)=O)(c3ccccc3)CC2)(c2ccc(Cl)c(Cl)c2)C1` (stereo not shown) [Example 5, 1-[2-[3-(3,4-dichloro-phenyl)-1-(2,6-dimethoxy-benzoyl)-pyrrolidin-3-yl]-ethyl]-4-phenyl-piperidine-4-carboxylic acid amide] here?
The IC50 was 20 nM.

What about the IC50 (NK-3 receptor) of the same compound?
The IC50 was 65 nM.

What about the IC50 [1] of the same compound?
The IC50 was 41 nM.

And the “DYSPNEA INCIDENCE” value [2, 5]?
The value was 66.7% (6/9).

And the “DYSPNEA ONSET” value [2, 5]?
The value was 253 ± 47 s.

What about the “MAXIMUM PRESSURE INCREASE (mmH2O)” value [2, 5] of the same compound?
Its value is 0.7 ± 0.1 mmH2O.

And the “SRE NUMBER*” value [2, 5]?
Its value is 4.4 ± 1.2.

And the “DYSPNEA INCIDENCE” value [2, 6]?
Its value is 85.7% (6/7).

And the “DYSPNEA ONSET” value [2, 6]?
The value was 384 ± 85 s.

And the “MAXIMUM PRESSURE INCREASE (mmH2O)” value [2, 6]?
The value was 0.5 ± 0.1 mmH2O.

And the “SRE NUMBER*” value [2, 6]?
The value was 4.9 ± 1.9.

Which IC50 (NK-3 receptor) does the source give for `NC(=O)C1(c2ccccc2)CCN(CCC2(c3ccc(Cl)c(Cl)c3)CCN(C(=O)c3ccccc3)C2)CC1` (stereo not shown) [Example 1, 1-[2-[3-(3,4-dichloro-phenyl)-1-benzoyl-pyrrolidin-3-yl]-ethyl]-4-phenyl-piperidine-4-carboxylic acid amide] here?
The IC50 was 162 nM.

What about the IC50 [1] of the same compound?
Its IC50 is 7 nM.

What does the source list for `NC(=O)C1(c2ccccc2)CCN(CCC2(c3ccc(Cl)c(Cl)c3)CC(=O)N(Cc3ccccc3)C2)CC1` (stereo not shown) [Example 11, 1-[2-[1-benzyl-3-(3,4-dichloro-phenyl)-5-oxo-pyrrolidin-3-yl]-ethyl]-4-phenyl-piperidine-4-carboxylic acid amide]?
IC50 (NK1 receptor; [3]): 196 nM; IC50 (NK-3 receptor; [4]): 203 nM; IC50 [1]: 127 nM

Which results are given for `O=C(c1ccccc1)N1CCC(CCN2CCC3(CC2)C(=O)NCN3c2ccccc2)(c2ccc(Cl)c(Cl)c2)C1` (stereo not shown) [Example 10, 8-[2-[3-(3,4-dichloro-phenyl)-1-benzoyl-pyrrolidin-3-yl]-ethyl]-1-phenyl-1,3,8-triaza-spiro[4.5]-decane-4-one]?
IC50 (NK1 receptor; [3]): 255 nM; IC50 (NK-3 receptor; [4]): 1190 nM; IC50 [1]: 11 nM

How did the IC50 (NK1 receptor; [3]) turn out when `COc1ccc(C(=O)N2CCC(CCN3CCC(C(N)=O)(c4ccccc4)CC3)(c3ccc(Cl)c(Cl)c3)C2)c(OC)c1` (stereo not shown) [Example 2, 1-[2-[3-(3,4-dichloro-phenyl)-1-(2,4-dimethoxy-benzoyl)-pyrrolidin-3-yl]-ethyl]-4-phenyl-piperidine-4-carboxylic acid amide] was run?
Its IC50 is 131 nM.

What about the IC50 (NK-3 receptor) of the same compound?
The IC50 was 65 nM.

And the IC50 [1]?
The IC50 was 34 nM.

Reference: patent publication EP0696280B1, “SUBSTITUTED PYRROLIDIN-3-YL-ALKYL-PIPERIDINES USEFUL AS TACHYKININ ANTAGONISTS” (MERRELL PHARMACEUTICALS INC., priority 1993, dated 1994)
